# In PubChem BioAssay (NCI):
#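 The compound was tested at five concentrations on cells cultured in 96-well plates, with a 48-hour exposure period. The concentration for 50% growth inhibition is given as GI50. At the TGI there is no net growth.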
# Assays:
# Test in all cases: NCI-60 cell line screen, 48 h
# SK-MEL-28 melanoma = tested on: SK-MEL-28 melanoma
# UO-31 renal = tested on: UO-31 renal
# A549 NSCLC = tested on: A549 NSCLC
# HOP-62 NSCLC = tested on: HOP-62 NSCLC
# UACC-62 melanoma = tested on: UACC-62 melanoma
# EKVX NSCLC = tested on: EKVX NSCLC
# TK-10 renal = tested on: TK-10 renal
# NCI-H522 lung = tested on: NCI-H522 lung
# RPMI-8226 leukemia = tested on: RPMI-8226 leukemia
# BT-549 breast = tested on: BT-549 breast
Structure (SMILES),TGI (SK-MEL-28 melanoma),TGI (UO-31 renal),TGI (A549 NSCLC),TGI (HOP-62 NSCLC),TGI (UACC-62 melanoma),TGI (EKVX NSCLC),TGI (TK-10 renal),TGI (NCI-H522 lung),TGI (RPMI-8226 leukemia),GI50 (SK-MEL-28 melanoma),GI50 (UO-31 renal),GI50 (A549 NSCLC),GI50 (HOP-62 NSCLC),GI50 (BT-549 breast),TGI (BT-549 breast),GI50 (UACC-62 melanoma),GI50 (TK-10 renal),GI50 (NCI-H522 lung),GI50 (RPMI-8226 leukemia),GI50 (EKVX NSCLC)
COC(=O)C1=Cc2cc(OC)c(OC)c(OC)c2[C@H](c2cc(OC)c(OC)c(OC)c2)C1C(=O)OC (stereo partly specified),> 100 µM,> 100 µM,> 100 µM,> 100 µM,> 100 µM,> 100 µM,> 100 µM,> 100 µM,> 100 µM,,,,,,,,,,,
CCOC(=O)C1SC(=Nc2cccc(Cl)c2C)N=C1C (stereo unspecified),> 100 µM,78.9 µM,60.4 µM,> 100 µM,,> 10 µM,73.3 µM,35.2 µM,69.9 µM,,,,,,,,,,,
Nc1c(C(=O)c2ccc(-c3cccnc3)cc2)cnn1-c1ccc(F)cc1,> 25 µM,> 22 µM,> 25 µM,> 25 µM,> 25 µM,,> 25 µM,> 23.1 µM,> 25 µM,> 17.4 µM,> 12.8 µM,> 14.4 µM,> 18.7 µM,> 25 µM,> 25 µM,> 21.1 µM,> 19.3 µM,> 12.7 µM,> 17.5 µM,
CCN(CC)CC(C)(C)C(=O)/C=C/c1cccc(/C=C/C(=O)C(C)(C)CN(CC)CC)c1,2.75 µM,3.17 µM,2.67 µM,5.14 µM,3.16 µM,2.53 µM,2.35 µM,,> 100 µM,,,,,,,,,,,
CCOC(=O)c1ccc(Nc2sc(C(=O)c3ccc(Br)cc3)c(N)c2C#N)cc1,> 100 µM,> 100 µM,> 100 µM,> 100 µM,> 100 µM,,,> 100 µM,> 72.3 µM,4.81 µM,1.93 µM,1.06 µM,1.56 µM,> 100 µM,> 100 µM,0.483 µM,,0.53 µM,2.57 µM,
OC(c1cc(-c2cccc(Cl)c2)nc2ccccc12)C1CCCCN1 (stereo unspecified),3.42 µM,2.74 µM,3.1 µM,3.32 µM,3.58 µM,2.94 µM,4.48 µM,3.66 µM,6.45 µM,1.81 µM,1.36 µM,1.7 µM,1.78 µM,,,1.93 µM,2.12 µM,1.97 µM,2.68 µM,1.45 µM
O=C1/C(=C\c2ccc(F)cc2)CN(C(=O)c2ccccc2)C/C1=C\c1ccc(F)cc1,5.88 µM,10.6 µM,71.9 µM,8.5 µM,4.83 µM,,17.3 µM,7.73 µM,1.17 µM,2.24 µM,2.4 µM,4.92 µM,3.07 µM,1.81 µM,3.43 µM,1.84 µM,4.21 µM,2.35 µM,0.296 µM,
C=C=C(C(=O)OC)S(=O)c1ccccc1[N+](=O)[O-] (stereo unspecified),,> 100 µM,> 100 µM,> 100 µM,> 100 µM,> 100 µM,> 100 µM,75.9 µM,> 100 µM,,,,,,,,,,,
CN(C)c1ccc(/C=C/C(=O)[O-])cc1.CN(C)c1ccc(/C=C/C(=O)[O-])cc1.[Cu+2],> 100 µM,> 100 µM,> 100 µM,> 100 µM,> 62.9 µM,> 100 µM,> 100 µM,> 100 µM,> 100 µM,> 69.8 µM,,,,,,,> 100 µM,,,
Cc1cc([N+](=O)[O-])ccc1Sc1c2ccccc2nc2cc(Cl)ccc12,> 100 µM,> 100 µM,> 100 µM,> 100 µM,> 100 µM,> 100 µM,> 100 µM,78.7 µM,,,,,,,,,,,,
Nc1c(-c2cn(Cc3ccccc3)c3ccccc23)[n+]([O-])c2ccccc2[n+]1[O-],91.8 µM,38.8 µM,> 100 µM,,> 100 µM,> 100 µM,> 100 µM,48.6 µM,> 100 µM,,,,,,,,,,,
C=C(C)C1CC/C(C)=C/CCC2(C)OC2CC/C(CO)=C\C1O (stereo unspecified),> 100 µM,> 100 µM,> 100 µM,> 100 µM,> 100 µM,> 100 µM,> 100 µM,,> 100 µM,,,,,,,,,,,
O=[N+]([O-])c1ccc(C2CC(c3ccccc3Cl)=Nc3ccccc3S2)cc1 (stereo unspecified),22.7 µM,36.8 µM,33.4 µM,68.2 µM,16.1 µM,31 µM,> 79.1 µM,8.16 µM,5.14 µM,,,,,,,,,,,
COc1ccc(C(CCC(C)=O)C(=O)O)cc1OC (stereo unspecified),> 100 µM,,> 100 µM,> 100 µM,> 100 µM,> 100 µM,> 100 µM,,> 100 µM,,,,,,,,,,,
C=CC(=O)NCCSCCCOC1(C(=O)O)CC(O)C(NC(C)=O)C(C(O)C(O)CO)O1 (stereo unspecified),> 100 µM,> 100 µM,> 100 µM,,> 100 µM,,> 100 µM,> 100 µM,> 100 µM,,,,,,,,,,,
CC1=Nc2ccccc2NC(c2ccoc2)C1 (stereo unspecified),> 100 µM,> 100 µM,> 100 µM,> 100 µM,> 100 µM,> 100 µM,> 100 µM,> 100 µM,> 100 µM,,,,,,,,,,,
CCOC(=O)C1=C(C)N=c2s/c(=C\c3ccccc3O)c(=O)n2C1c1ccc(OC)c2ccccc12 (stereo unspecified),76.4 µM,33.1 µM,16.7 µM,14.6 µM,> 100 µM,,23.3 µM,44.3 µM,31.2 µM,15.5 µM,15.6 µM,3.88 µM,4.65 µM,14.6 µM,> 100 µM,40.7 µM,11 µM,13.4 µM,5.39 µM,
c1ccc([CH2][Sn]([CH2]c2ccccc2)([O]c2cccc3cccnc23)[O]c2cccc3cccnc23)cc1,0.963 µM,1.39 µM,0.69 µM,0.515 µM,0.447 µM,1.99 µM,3.1 µM,0.351 µM,,0.193 µM,0.363 µM,0.245 µM,0.207 µM,,,0.178 µM,1.67 µM,0.186 µM,,0.741 µM
Cc1cc([N+](=O)[O-])ccc1NC(=O)C(=O)C(C(=O)c1ccccc1-c1ccccc1)C1OC(=O)c2ccccc21 (stereo unspecified),> 100 µM,31.3 µM,> 100 µM,,13.5 µM,,33.8 µM,26.2 µM,98 µM,,,,,,,,,,,
